Measurements from patent US11567065B2, “Measuring frequency of pathogen-specific T cells in peripheral blood” (THOMAS JEFFERSON UNIVERSITY, priority 2015, dated 2023).

System: 68A62 CTL
Experiment: CaFlux assay: Ca2+ flux in monolayer of 68A62 CTL
Format: cell-based, human
Settings: FIG. 4A
Procedure: 10^6 cells in 1 ml of PBS were loaded with Fluo-4 (Life Technologies) at 2-4 μM for 30 min at 37° C. in the presence of 0.02% pluoronic acid F-127 and 4 mM Probenecid. The cells were washed free of unreacted reagents and incubated at 37° C. for additional 30 min. The cells were then re-suspended in the assay buffer (Dulbecco's PBS containing 1 mM CaCl2, 2 mM MgCl2, 5 mM glucose, and 0.025% BSA) and used for Ca2+ flux analysis.
Glass bottom of 96 well MatTec plates was covered with poly-L-Lysine (Sigma, mol wt>300,000) at 0.1 mg/ml for 1 hr at room temperature. After washing with DPBS and dd water, TS2/4 non-blocking mAb specific for LFA-1 were added to the plate at concentration 10 μg/ml overnight & 4° C. The wells were washed with DPBS, and 3×10^5 Fluo-4-labeled T cells in 100 μl of the assay buffer were added to each well. The plates were centrifuged for 700 g for one minute and were incubated for 30 min at room temperature prior to the imaging. […] The quality of T cell monolayer was assessed using bright field microscopy.
To identify responding T cells we imaged T-cell monolayers before (background measurement) and after (response) addition of the stimulatory signal such as agonist peptide. […] The average intensity of images prior and after the T-cell stimulation at various time points and the numbers of individual responding cells per imaging field were determined by MetaMorph software.

ILKEPVHGV (IV9)
time to maximum of Ca2+ increase following stimulation: 2 to 3 min
